Data from PubChem BioAssay AID248 (DTP/NCI, 2004).
“And” between values parts separate entries of the source, which are not always exact repeats. Identical values can stand only once. Toxic doses and inconclusive results are not listed. No stated cut-off is given here; in the data, active means T/C of 150% or more; inactive means T/C below 125%.

System: L1210 leukemia ip in BDF1 mice, survival T/C
Assay: NCI In Vivo Anticancer Drug Screen. Data for tumor model L1210 Leukemia (intraperitoneal) in B6D2F1 (BDF1) mice
Settings: endpoint: mean survival time, higher = longer survival
Procedure, shortened: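 Transplanted-tumor mice were given test agent; controls received vehicle only. Survival readings from the two groups were divided (treated over control).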

[1] = dose: 100.0 mg/kg/injection, schedule: Q01DX001 (ip), vehicle: saline
[2] = dose: 200.0 mg/kg/injection, schedule: Q01DX001 (ip), vehicle: saline
[3] = dose: 400.0 mg/kg/injection, schedule: Q01DX001 (ip), vehicle: saline
[4] = dose: 100.0 mg/kg/injection, schedule: Q01DX009 (ip), vehicle: Klucel (hydroxypropylcellulose) (HPC)
[5] = dose: 100.0 mg/kg/injection, schedule: Q04DX003 (ip), vehicle: Klucel (hydroxypropylcellulose) (HPC)
[6] = dose: 200.0 mg/kg/injection, schedule: Q01DX009 (ip), vehicle: Klucel (hydroxypropylcellulose) (HPC)
[7] = dose: 200.0 mg/kg/injection, schedule: Q04DX003 (ip), vehicle: Klucel (hydroxypropylcellulose) (HPC)
[8] = dose: 400.0 mg/kg/injection, schedule: Q01DX009 (ip), vehicle: Klucel (hydroxypropylcellulose) (HPC)
[9] = dose: 400.0 mg/kg/injection, schedule: Q04DX003 (ip), vehicle: Klucel (hydroxypropylcellulose) (HPC)

Measured: T/C

CC(C)NC(=O)CS(=O)(=O)c1ccc(N)cc1
inactive: dose: 100.0 mg/kg/injection, schedule: Q04DX003 (ip), vehicle: saline with Tween-80 97 % of control | dose: 200.0 mg/kg/injection, schedule: Q04DX003 (ip), vehicle: saline with Tween-80 97 % of control | dose: 400.0 mg/kg/injection, schedule: Q04DX003 (ip), vehicle: saline with Tween-80 95 % of control

CC1(C)C2CCC1(C)C(C(=O)C(F)(F)F)C2=O.CC1(C)C2CCC1(C)C(C(=O)C(F)(F)F)C2=O.[Co] (configuration not stated)
inactive: dose: 100.0 mg/kg/injection, schedule: Q04DX002 (ip), vehicle: saline 110 % of control | dose: 200.0 mg/kg/injection, schedule: Q04DX002 (ip), vehicle: saline 94 % of control

C=CCCCCCCCCC(=O)OC
inactive: [1] 100 % of control | [2] 96 % of control | [3] 100 % of control

CS(=O)(=O)n1c(C(Cl)c2ccccc2)nc2ccccc21 (configuration not stated)
inactive: [1] 102 % of control | [2] 104 % of control | [3] 120 % of control

COc1ccc(/C=C2/COC/C(=C/c3ccc(OC)c(OC)c3)C2=O)cc1OC
inactive: dose: 100.0 mg/kg/injection, schedule: Q01DX009 (ip), vehicle: saline 98 % of control | dose: 100.0 mg/kg/injection, schedule: Q04DX003 (ip), vehicle: saline 101 % of control | dose: 200.0 mg/kg/injection, schedule: Q01DX009 (ip), vehicle: saline 93 % of control | dose: 200.0 mg/kg/injection, schedule: Q04DX003 (ip), vehicle: saline 95 % of control | dose: 400.0 mg/kg/injection, schedule: Q01DX009 (ip), vehicle: saline 90 % of control | dose: 400.0 mg/kg/injection, schedule: Q04DX003 (ip), vehicle: saline 93 % of control

O=C1C(N2CCCCC2)=C(c2ccccc2)c2ccccc21
inactive: [1] 92 % of control | [2] 94 % of control | [3] 102 % of control

COc1cccc2c1C(=O)c1c(O)c3c(c(O)c1C2=O)CC(O)(C(C)=O)CC3OC1CC(NC(=O)C(F)(F)F)C(O)C(C)O1 (configuration not stated)
inactive: dose: 0.25 mg/kg/injection, schedule: Q04DX003 (ip), vehicle: water 96 % of control | dose: 0.5 mg/kg/injection, schedule: Q04DX003 (ip), vehicle: water 95 % of control | dose: 1.0 mg/kg/injection, schedule: Q04DX003 (ip), vehicle: water 106 % of control | dose: 2.0 mg/kg/injection, schedule: Q04DX003 (ip), vehicle: water 111 % of control | dose: 4.0 mg/kg/injection, schedule: Q04DX003 (ip), vehicle: water 98 % of control | dose: 8.0 mg/kg/injection, schedule: Q04DX003 (ip), vehicle: water 90 % of control | dose: 14.0 mg/kg/injection, schedule: Q04DX003 (ip), vehicle: water 107 % of control | dose: 16.0 mg/kg/injection, schedule: Q04DX003 (ip), vehicle: water 101 % of control | dose: 21.0 mg/kg/injection, schedule: Q04DX003 (ip), vehicle: water 113 % of control | dose: 25.0 mg/kg/injection, schedule: Q04DX003 (ip), vehicle: water 110 % of control | dose: 32.0 mg/kg/injection, schedule: Q04DX003 (ip), vehicle: water 110 % of control | dose: 50.0 mg/kg/injection, schedule: Q04DX003 (ip), vehicle: water 107 % of control and 112 % of control | dose: 100.0 mg/kg/injection, schedule: Q04DX003 (ip), vehicle: water 112 % of control

S=c1[nH]nc2n1NC(c1ccoc1)=NN2
inactive: dose: 25.0 mg/kg/injection, schedule: Q01DX009 (ip), vehicle: saline with Tween-80 96 % of control | dose: 50.0 mg/kg/injection, schedule: Q01DX009 (ip), vehicle: saline with Tween-80 95 % of control | dose: 100.0 mg/kg/injection, schedule: Q01DX009 (ip), vehicle: saline with Tween-80 97 % of control

c1coc(-c2ncnc3c2Cc2ccccc2-3)c1
inactive: dose: 25.0 mg/kg/injection, schedule: Q01DX009 (ip), vehicle: Klucel (hydroxypropylcellulose) (HPC) 96 % of control | dose: 25.0 mg/kg/injection, schedule: Q04DX003 (ip), vehicle: Klucel (hydroxypropylcellulose) (HPC) 98 % of control | dose: 50.0 mg/kg/injection, schedule: Q01DX009 (ip), vehicle: Klucel (hydroxypropylcellulose) (HPC) 91 % of control | dose: 50.0 mg/kg/injection, schedule: Q04DX003 (ip), vehicle: Klucel (hydroxypropylcellulose) (HPC) 91 % of control | [4] 102 % of control | [5] 100 % of control

Cc1ccc(S(=O)(=O)NC(C)(C)CNc2ncnc(Cl)c2N)cc1
inactive: dose: 9.5 mg/kg/injection, schedule: Q01DX001 (ip), vehicle: other 101 % of control | dose: 19.0 mg/kg/injection, schedule: Q01DX001 (ip), vehicle: other 96 % of control

O=c1[nH]nnc2c1ncn2C1OC(CO)C(O)C1O (configuration not stated)
inactive: dose: 100.0 mg/kg/injection, schedule: Q01DX005 (ip), vehicle: saline 102 % of control | dose: 200.0 mg/kg/injection, schedule: Q01DX005 (ip), vehicle: saline 102 % of control

CCOC(=O)/C(Cc1cc[n+]([O-])c2ccccc12)=N/O
inactive: [4] 91 % of control | [5] 92 % of control | [6] 97 % of control | [7] 90 % of control | [8] 100 % of control | [9] 100 % of control

COc1cc(C)ccc1C(=O)CCCC(=O)O
inactive: dose: 100.0 mg/kg/injection, schedule: Q01DX001 (ip), vehicle: Klucel (hydroxypropylcellulose) (HPC) 106 % of control | [5] 105 % of control | dose: 200.0 mg/kg/injection, schedule: Q01DX001 (ip), vehicle: Klucel (hydroxypropylcellulose) (HPC) 98 % of control | [6] 97 % of control | [7] 102 % of control | dose: 400.0 mg/kg/injection, schedule: Q01DX001 (ip), vehicle: Klucel (hydroxypropylcellulose) (HPC) 98 % of control | [8] 98 % of control | [9] 103 % of control

CCN(CC)CC(Cl)COc1ccccc1C (configuration not stated)
inactive: [1] 91 % of control | [2] 94 % of control
